# Results from US20050164331A1, “Method and device for detecting toxic material in water using microbial fuel cell” (priority 2002, published 2005).
# Read-outs that look alike come from different tables or passages of the source.
# How the values were obtained:
# [1] = system: electrochemically active bacteria in the sludge
# From the text: The sample enters into the anode part after passing through the first and the second pretreatment tanks(2,3). The anode part is composed of a carbon felt and platinum(Pt) wire, while its inside part is filled usually with a microorganism catalyst which generates electrochemical energy using organic raw material. The cathode part is filled with ordinary water. Namely, the sample containing organic materials enters into the anode and the water-saturated with air enters the cathode. Now the organic materials are decomposed by microorganism at the anode part of the fuel cell and a current is generated. The current moves along the Pt wire and is measured by the voltmeter.
# Active sludge was introduced into the anode part so that the electrochemically active bacteria in the sludge are attached to the electrode and densely cultured. To the cathode part, water saturated with air was incorporated, keeping a certain potential difference so as to make an efficient biological electrochemical reaction occur in the microbial fuel cell. Into this microbial fuel cell, added were glucose and glutamic acid(CODcr 200 ppm, which means the chemical oxygen demand due to the potassium dichromate) as fuel and the generated current was measured by the volt meter(2000 multimeter, Keithley Instrument. Inc, USA) at 60 seconds interval, while adding to the used fuel cell, Cr^6+ standard solution successively in the concentration of 0.01 ppm, 0.02 ppm, 0.03 ppm, 0.04 ppm and 0.05 ppm.
# [2] = system: golden dace; conditions: 8 ppm phenol introduced to water; cited from earlier work
# [3] = microbial fuel cell with active sludge, fuel glucose and glutamic acid (CODcr 200 ppm), standard solution added successively at 0.01-0.05 ppm, current measured at 60 seconds interval
Structure (SMILES),"concentration at which the constantly generated current showed a sharp drop [1, 3] [ppm]",concentration at which the constantly generated current showed a sharp drop [1] [ppm],time required to determine the toxicity using fish [2] [h]
[Cr+6] [Cr^6+],0.04,–,–
"[Pb] [Pb, lead]",0.04,–,–
Oc1ccccc1 [phenol],–,0.03,8
